Results: PubChem BioAssay (NCI)
Where “and” joins values, the source holds several entries; their conditions need not be identical. Identical values can stand only once.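 48-hour exposure; five concentrations; linearly interpolated endpoints. GI50: concentration for 50% inhibition of growth. The concentration for full growth arrest is given as TGI.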 *1 amine or outer side, *2 acyl side, *3 side chain or, on linkers, in order; H or OH if unused. Where a SMILES comes first, the peptide text is derived from it. [ ]: non-standard residue; d: D form. The star is where a group is joined. X31 = CC(=O)N(C)SCC(N[*:1])C(=O)[*:2]; Cbz = O=C(OCc1ccccc1)*; Bn = c1ccc(C*)cc1; For = O=C*

How the values were obtained:
Assay in all cases: NCI anticancer screen, dose series, 48 h
SF-268 CNS = tested on: SF-268 CNS
LOX IMVI melanoma = tested on: LOX IMVI melanoma
HT29 colon = tested on: HT29 colon
SW-620 colon = tested on: SW-620 colon
SNB-19 CNS = tested on: SNB-19 CNS
SF-295 CNS = tested on: SF-295 CNS
MDA-MB-435 = tested on: MDA-MB-435
KM12 colon = tested on: KM12 colon
IGROV1 ovarian = tested on: IGROV1 ovarian
UO-31 renal = tested on: UO-31 renal
MOLT-4 leukemia = tested on: MOLT-4 leukemia
DU-145 prostate = tested on: DU-145 prostate
A549 NSCLC = tested on: A549 NSCLC
OVCAR-5 ovarian = tested on: OVCAR-5 ovarian
SR leukemia = tested on: SR leukemia
U251 CNS = tested on: U251 CNS

SMILES	TGI (SF-268 CNS) [µM]	TGI (LOX IMVI melanoma)	TGI (HT29 colon)	TGI (SW-620 colon) [µM]	TGI (SNB-19 CNS) [µM]	GI50 (SF-295 CNS)	TGI (SF-295 CNS)	TGI (MDA-MB-435)	TGI (KM12 colon) [µM]	TGI (IGROV1 ovarian) [µM]	TGI (UO-31 renal) [µM]	GI50 (MOLT-4 leukemia)	TGI (MOLT-4 leukemia)	GI50 (DU-145 prostate)	TGI (DU-145 prostate) [µM]	TGI (A549 NSCLC) [µM]	GI50 (OVCAR-5 ovarian)	TGI (OVCAR-5 ovarian) [µM]	TGI (SR leukemia) [µM]	TGI (U251 CNS) [µM]
N#Cc1c(-c2ccccc2)cc(-c2ccccc2)n(C2OC(CO)C(O)C(O)C2O)c1=S (stereo unspecified)	> 100	37.7 µM and 92.3 µM	56 µM and > 100 µM	> 100	> 100	19.5 µM and 41.1 µM	44.4 µM and > 100 µM	44 µM and 67.9 µM	> 100	> 100	> 100	11.3 µM and 23.5 µM	51.7 µM and 85.8 µM	42.2 µM and > 100 µM	> 100	> 100	35.8 µM and > 100 µM	> 100	> 100	35.9
COC(=O)C1(C(=O)OC)Cc2ccc(OC)cc2C2=C1C(=O)c1ccccc1C2=O	26.2	5.39 µM	59.5 µM	16.9	33.4		8.44 µM	3.52 µM	23.5	8.53	18.6		3.97 µM		30.3	30.9		20.2	> 100	14.8
CCc1c2c([nH]c(=S)c1C#N)CCC2	> 100	> 100 µM	> 100 µM	> 100	> 100		> 100 µM	> 100 µM	> 100	> 100	> 100		> 100 µM		> 100	> 100		> 100	> 100	> 100
O=C(ON=C1c2ccccc2C(Br)C(Br)c2ccccc21)c1cc([N+](=O)[O-])cc([N+](=O)[O-])c1 (stereo unspecified)	35.7	28.8 µM	37.7 µM	40.5	56.8		> 88.9 µM	35.3 µM	37.4	26.6			45.1 µM		66	75.7		43.8	26.9	30.2
Clc1ccc(NCc2nnc(CCCCCCCCc3nnc(CNc4ccc(Cl)cc4)o3)o2)cc1	> 100	> 100 µM	> 100 µM		> 100		> 100 µM	> 100 µM	> 100		> 100		> 100 µM		> 100	> 100		> 100	> 100	> 100
COC(=O)C1(CCC(C)=O)CCCCCC1=O (stereo unspecified)	> 100	> 100 µM	> 100 µM	> 100	> 100		> 100 µM	> 100 µM	> 100	> 100	> 100		> 100 µM		> 100	> 100		> 100	> 100	> 100
CC(=O)N(C)SCC(NC(=O)C(Cc1ccccc1)NC(=O)OCc1ccccc1)C(=O)NC(Cc1ccccc1)C(=O)NC(Cc1cn(C=O)c2ccccc12)C(=O)NC(CCCCNC(=O)OCc1ccccc1)C(=O)NC(C(=O)NC(CSN(C)C(C)=O)C(=O)NC(C(N)=O)C(C)OCc1ccccc1)C(C)OCc1ccccc1 (stereo unspecified) (Cbz-F[X31]FW(For)K(Cbz)T(Bn)[X31]T(Bn)-NH2; configuration not given here)	> 100	> 100 µM	> 100 µM	> 100	51.7		> 100 µM	> 100 µM	> 100	> 100	> 100		> 100 µM		> 100	> 100		> 100	> 100	> 100
CCOc1cc(NC(C)=O)ccc1C(=O)NN1C(=O)C(Cl)C1c1ccccc1 (stereo unspecified)	43.8	3.55 µM	31.2 µM	59.6	28.4		37.1 µM	26 µM	32.9	18	14.9		21.3 µM		32.2	33.3		31.4	14.3	
O=S1(=O)N=C(SCc2ccccc2)N(c2ccccc2)c2ccncc21	> 100	> 100 µM	> 100 µM	> 100	> 100		> 100 µM	> 100 µM	> 100		46.8		> 100 µM		> 100	> 100		> 100	> 100	> 100
NC(N)=N/N=C/c1c(-c2ccc(Cl)cc2)nc2sccn12	3.72		3.23 µM	3.04	20.7		3.13 µM	3.43 µM		4.24	7.49		5.08 µM		13.1	3.15		7.03	13.2	3.59
CC(C)Cn1cnc2c(NCC(C)O)nc3ccccc3c21 (stereo unspecified)	> 100	> 100 µM	> 100 µM	> 100	> 100		> 100 µM	> 100 µM	> 100	> 100	> 100		> 100 µM		> 100	> 100		> 100	> 100	> 100
CNC1=C(C)C(=O)C(=O)C([C@H](C)CCC=C(C)C)=C1O	> 100	> 100 µM	> 100 µM	> 100	> 100		> 75.7 µM	> 100 µM	> 100	> 76.1	49.7		> 48.5 µM		> 100	> 100		> 100	71	> 100
CCCCCCCCCCCCCCCCCCNc1ccn(C2OC(COP(=O)(O)OCC3OC(n4cc(F)c(=O)[nH]c4=O)CC3O)C(O)C2O)c(=O)n1 (stereo unspecified)	> 50	18.2 µM	> 84.3 µM	> 100	> 100		> 100 µM	> 100 µM	41.8	35.8	> 100		25.2 µM		> 100	> 100		39.7	28.8	> 100
C=CCN1C(=O)/C(=C/c2ccc(OC)cc2)N=C1SC/C=C/C	> 100	> 100 µM	> 100 µM	> 100	> 100		> 100 µM	> 100 µM	> 100	> 100	> 100		66.7 µM		> 100	> 100		> 100	63.8	> 100
